According to ChEMBL document CHEMBL3856207, “Kinetic, thermodynamic and structural analysis of tamiphosphor binding to neuraminidase of H1N1 (2009) pandemic influenza” (Eur J Med Chem, 2016):
Calls of active or inactive are those of the source. The calls are words filed in the database; no cut-off is given here.

Key:
[1] = Inhibition of Influenza A virus (A/California/07/2009(H1N1)) recombinant wild type N-terminal FLAG-tagged neuraminidase ectodomain (82 to 469 residues) transfected in Drosophila Schneider S2 cells using 4-MUNANA as substrate after 20 mins by fluorometric method
S2 = experiment: Binding affinity to Influenza A virus (A/California/07/2009(H1N1)) recombinant wild type N-terminal FLAG-tagged neuraminidase catalytic domain transfected in Drosophila Schneider S2 cells at 76 to 93 uM by isothermal titration calorimetric method

Row | Compound | Ki [1] [nM] | Activity (S2)
1 | CCC(CC)O[C@@H]1C=C(P(=O)(O)OC)C[C@H](N)[C@H]1NC(C)=O | 39 | –
2 | CCC(CC)O[C@@H]1C=C(C(=O)O)C[C@H](N)[C@H]1NC(C)=O [OSELTAMIVIR CARBOXYLATE] | – | Active
3 | CCC(CC)O[C@@H]1C=C(C(=O)O)C[C@H](NC(=N)N)[C@H]1NC(C)=O | 46 | –
4 | CCC(CC)O[C@@H]1C=C(P(=O)(O)O)C[C@H](NC(=N)N)[C@H]1NC(C)=O | 140 | –
5 | CCC(CC)O[C@@H]1C=C(P(=O)(O)O)C[C@H](N)[C@H]1NC(C)=O [TAMIPHOSPHOR] | 26 | Active
